From ChEMBL document CHEMBL4619828, “Discovery of Potent and Orally Bioavailable Small Molecule Antagonists of Toll-like Receptors 7/8/9 (TLR7/8/9)” (ACS Med Chem Lett, 2020)

Key:
Type in all cases: cell-based
Toll-like receptor 9 = target: T1, Toll-like receptor 9 (Homo sapiens, UniProt Q9NR96); test: Antagonist activity at human TLR9 overexpressed in HEK-Blue cells assessed as inhibition of ODN2006-induced NFkappaB and AP-1 activation preincubated for 30 mins followed by ODN2006 stimulation measured after 22 hrs by quanti-blue SEAP assay
T1 sequence (Q9NR96 whole entry): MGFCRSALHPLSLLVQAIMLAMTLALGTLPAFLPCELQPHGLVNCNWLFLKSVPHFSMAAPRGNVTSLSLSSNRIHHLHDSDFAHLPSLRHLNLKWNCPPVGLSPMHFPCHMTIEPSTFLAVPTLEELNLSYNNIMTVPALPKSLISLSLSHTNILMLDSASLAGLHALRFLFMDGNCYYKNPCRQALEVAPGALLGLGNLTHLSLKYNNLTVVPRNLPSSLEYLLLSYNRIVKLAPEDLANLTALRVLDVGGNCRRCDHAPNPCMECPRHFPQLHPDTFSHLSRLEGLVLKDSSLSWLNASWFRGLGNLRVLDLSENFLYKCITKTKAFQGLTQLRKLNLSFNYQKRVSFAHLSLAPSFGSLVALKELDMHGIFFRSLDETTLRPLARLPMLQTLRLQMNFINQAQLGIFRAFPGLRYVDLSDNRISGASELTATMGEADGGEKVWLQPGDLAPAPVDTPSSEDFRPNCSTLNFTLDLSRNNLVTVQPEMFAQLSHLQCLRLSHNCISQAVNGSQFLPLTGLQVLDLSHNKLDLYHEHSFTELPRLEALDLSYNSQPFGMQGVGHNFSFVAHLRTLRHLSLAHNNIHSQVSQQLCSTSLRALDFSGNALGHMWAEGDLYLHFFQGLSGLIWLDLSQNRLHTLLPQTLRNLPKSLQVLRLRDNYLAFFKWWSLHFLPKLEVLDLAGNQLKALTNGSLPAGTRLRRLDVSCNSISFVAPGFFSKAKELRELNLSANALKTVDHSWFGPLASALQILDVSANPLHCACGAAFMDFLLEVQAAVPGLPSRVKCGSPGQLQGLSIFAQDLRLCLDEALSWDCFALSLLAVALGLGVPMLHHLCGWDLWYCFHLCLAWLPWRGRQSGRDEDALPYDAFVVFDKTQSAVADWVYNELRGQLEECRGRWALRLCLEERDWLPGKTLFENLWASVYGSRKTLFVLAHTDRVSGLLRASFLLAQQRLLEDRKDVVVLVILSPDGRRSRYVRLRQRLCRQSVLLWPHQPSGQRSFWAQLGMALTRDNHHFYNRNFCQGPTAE

Toll-like receptor 7 = target: T2, Toll-like receptor 7 (Homo sapiens, UniProt Q9NYK1); test: Antagonist activity at human TLR7 overexpressed in HEK-Blue cells assessed as inhibition of gardiquimod-induced NFkappaB and AP-1 activation preincubated for 30 mins followed by gardiquimod stimulation measured after 22 hrs by quanti-blue SEAP assay
T2 sequence (Q9NYK1 whole entry): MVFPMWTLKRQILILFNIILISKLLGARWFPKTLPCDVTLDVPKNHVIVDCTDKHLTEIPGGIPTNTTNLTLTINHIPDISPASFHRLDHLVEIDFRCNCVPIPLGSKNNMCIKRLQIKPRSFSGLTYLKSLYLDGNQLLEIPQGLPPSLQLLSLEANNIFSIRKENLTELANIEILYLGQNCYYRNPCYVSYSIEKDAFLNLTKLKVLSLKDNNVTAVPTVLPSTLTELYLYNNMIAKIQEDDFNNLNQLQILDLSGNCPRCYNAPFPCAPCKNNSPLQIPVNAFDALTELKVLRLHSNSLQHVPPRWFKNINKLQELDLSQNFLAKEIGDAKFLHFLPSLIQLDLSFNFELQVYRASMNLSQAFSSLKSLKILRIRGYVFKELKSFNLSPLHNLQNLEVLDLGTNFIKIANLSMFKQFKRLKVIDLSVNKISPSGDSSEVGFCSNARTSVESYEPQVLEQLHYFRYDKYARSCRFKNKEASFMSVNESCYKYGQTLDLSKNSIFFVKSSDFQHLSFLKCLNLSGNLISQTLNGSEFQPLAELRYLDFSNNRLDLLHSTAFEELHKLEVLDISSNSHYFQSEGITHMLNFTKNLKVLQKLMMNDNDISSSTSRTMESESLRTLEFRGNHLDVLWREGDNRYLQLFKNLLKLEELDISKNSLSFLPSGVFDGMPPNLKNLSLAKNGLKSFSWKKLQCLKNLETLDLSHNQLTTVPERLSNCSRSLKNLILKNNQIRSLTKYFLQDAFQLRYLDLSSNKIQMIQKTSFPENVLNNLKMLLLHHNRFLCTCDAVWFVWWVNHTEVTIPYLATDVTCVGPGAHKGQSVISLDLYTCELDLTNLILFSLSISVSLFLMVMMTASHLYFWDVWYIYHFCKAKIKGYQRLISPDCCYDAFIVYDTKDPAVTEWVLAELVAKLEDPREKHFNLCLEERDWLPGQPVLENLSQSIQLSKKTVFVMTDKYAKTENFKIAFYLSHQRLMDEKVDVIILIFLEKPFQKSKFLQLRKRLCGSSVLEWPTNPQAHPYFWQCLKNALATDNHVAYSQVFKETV

[1] = target: T3, Toll-like receptor 9 (Homo sapiens) (UniProt Q9NR96); test: Antagonist activity at human TLR9 overexpressed in HEK-Blue cells assessed as inhibition of ODN2006-induced NFkappaB and AP-1 activation at 10 uM preincubated for 30 mins followed by ODN2006 stimulation measured after 22 hrs by quanti-blue SEAP assay relative to control
T3 sequence (whole entry): T1 sequence (Q9NR96 whole entry)

Toll-like receptor 3 = target: T4, Toll-like receptor 3 (Homo sapiens, UniProt O15455); test: Antagonist activity at human TLR3 overexpressed in HEK-Blue cells assessed as inhibition of Poly IC-induced NFkappaB and AP-1 activation preincubated for 30 mins followed by Poly IC stimulation measured after 22 hrs by quanti-blue SEAP assay
T4 sequence (O15455 whole entry): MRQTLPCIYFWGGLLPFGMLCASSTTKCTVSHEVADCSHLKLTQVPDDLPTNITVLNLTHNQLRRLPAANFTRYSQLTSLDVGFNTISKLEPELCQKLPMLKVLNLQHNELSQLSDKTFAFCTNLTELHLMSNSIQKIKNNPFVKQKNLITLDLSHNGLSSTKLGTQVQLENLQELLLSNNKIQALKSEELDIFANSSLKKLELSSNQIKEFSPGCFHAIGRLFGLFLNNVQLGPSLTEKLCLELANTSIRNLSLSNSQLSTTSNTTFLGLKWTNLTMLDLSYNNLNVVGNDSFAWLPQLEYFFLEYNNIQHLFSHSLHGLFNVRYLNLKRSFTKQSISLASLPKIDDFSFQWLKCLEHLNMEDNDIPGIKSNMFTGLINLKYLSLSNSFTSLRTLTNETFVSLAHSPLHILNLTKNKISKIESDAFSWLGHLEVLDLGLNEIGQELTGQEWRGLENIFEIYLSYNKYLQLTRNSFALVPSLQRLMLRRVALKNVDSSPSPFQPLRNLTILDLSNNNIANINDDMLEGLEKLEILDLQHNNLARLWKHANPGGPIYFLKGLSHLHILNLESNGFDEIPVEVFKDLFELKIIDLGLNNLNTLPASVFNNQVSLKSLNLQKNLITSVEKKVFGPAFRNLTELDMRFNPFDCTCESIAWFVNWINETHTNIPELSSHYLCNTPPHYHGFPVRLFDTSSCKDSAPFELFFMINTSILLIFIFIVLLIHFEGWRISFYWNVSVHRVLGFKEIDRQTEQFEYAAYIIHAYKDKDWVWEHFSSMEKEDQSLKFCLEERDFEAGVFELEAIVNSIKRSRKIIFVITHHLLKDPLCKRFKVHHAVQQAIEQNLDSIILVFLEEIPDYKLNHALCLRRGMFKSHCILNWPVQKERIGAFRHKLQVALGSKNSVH

Toll-like receptor 4 = Toll-like receptor 4 (Homo sapiens, UniProt O00206); test: Antagonist activity at human TLR4 overexpressed in HEK-Blue cells assessed as inhibition of […] induced NFkappaB and AP-1 activation preincubated for 30 mins followed by […] stimulation measured after 22 hrs by quanti-blue SEAP assay
Toll-like receptor 4, sequence (O00206 whole entry): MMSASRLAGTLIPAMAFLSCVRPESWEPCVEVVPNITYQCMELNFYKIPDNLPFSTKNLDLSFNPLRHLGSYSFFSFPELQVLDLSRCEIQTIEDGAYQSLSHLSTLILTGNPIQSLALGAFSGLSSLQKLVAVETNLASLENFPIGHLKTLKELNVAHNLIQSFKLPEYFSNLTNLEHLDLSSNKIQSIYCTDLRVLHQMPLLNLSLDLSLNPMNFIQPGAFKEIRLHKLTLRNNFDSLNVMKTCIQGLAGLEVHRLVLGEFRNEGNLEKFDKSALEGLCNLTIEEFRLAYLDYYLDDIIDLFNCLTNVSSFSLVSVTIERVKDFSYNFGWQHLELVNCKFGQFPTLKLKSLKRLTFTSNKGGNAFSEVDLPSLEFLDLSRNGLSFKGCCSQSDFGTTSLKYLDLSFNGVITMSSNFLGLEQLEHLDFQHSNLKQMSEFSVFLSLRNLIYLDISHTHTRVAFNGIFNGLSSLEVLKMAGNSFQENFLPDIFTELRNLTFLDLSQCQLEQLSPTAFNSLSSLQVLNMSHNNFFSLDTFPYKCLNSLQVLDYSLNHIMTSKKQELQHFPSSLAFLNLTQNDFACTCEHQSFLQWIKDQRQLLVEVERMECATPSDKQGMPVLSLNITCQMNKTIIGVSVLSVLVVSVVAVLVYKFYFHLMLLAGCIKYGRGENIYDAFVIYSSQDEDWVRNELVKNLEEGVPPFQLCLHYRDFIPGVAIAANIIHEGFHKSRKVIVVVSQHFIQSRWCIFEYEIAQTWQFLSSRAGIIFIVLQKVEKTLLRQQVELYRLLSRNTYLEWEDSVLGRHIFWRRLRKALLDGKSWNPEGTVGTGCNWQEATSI

Row | IC50 (Toll-like receptor 9) [nM] | IC50 (Toll-like receptor 7) [nM] | SMILES | also measured
1 | 23300 | 610 | CNCCN1CCC(c2ccc3[nH]c(-c4ccccc4OC)c(F)c3c2)CC1 | inhibition [1]: < 5%
2 | 1660 | – | CCOc1cc(-c2[nH]c3ccc(C4CCN(CCNC)CC4)cc3c2C)ccc1OC(C)C | –
3 | 600 | > 10000 | CNCCN1CCC(c2ccc3[nH]c(-c4ccccc4C#N)c(C)c3c2)CC1 | –
4 | 3360 | – | COc1ccc(-c2[nH]c3ccc(C4CCN(Cc5ccncc5)CC4)cc3c2C)cc1OC | –
5 | 520 | – | CNCCN1CCC(c2ccc3[nH]c(-c4ccc(C#N)cc4)c(C)c3c2)CC1 | –
6 | 5390 | > 10000 | CNCCN1CCC(c2ccc3[nH]c(-c4ccc(C)cc4)c(C)c3c2)CC1 | –
7 | 2340 | – | COc1ccc(-c2[nH]c3ccc(C4CCN(C5CNC5)CC4)cc3c2C)cc1OC | –
8 | – | 130 | CCc1c(-c2ccc(OC)c(OC)c2)[nH]c2ccc(C3CCN(CCNC)CC3)cc12 | –
9 | 1870 | 6170 | CNCCN1CCC(c2ccc3[nH]c(-c4cccc(OC)c4)c(C)c3c2)CC1 | –
10 | 2620 | > 10000 | CNCCN1CCC(c2ccc3[nH]c(-c4cccc(C)c4)c(C)c3c2)CC1 | –
11 | 270 | 16600 | CNCCN1CCC(c2ccc3[nH]c(-c4ccc(C(N)=O)cc4)c(C)c3c2)CC1 | –
12 | 1100 | > 10000 | CNCCN1CCC(c2ccc3[nH]c(-c4ccccc4OC)c(C)c3c2)CC1 | –
13 | 2140 | > 10000 | CNCCN1CCC(c2ccc3[nH]c(-c4ccccc4C)c(C)c3c2)CC1 | –
14 | 2710 | 920 | COc1ccc(-c2[nH]c3ccc(C4CCN(Cc5cncn5C)CC4)cc3c2C)cc1OC | –
15 | 2200 | > 10000 | CNCCN1CCC(c2ccc3[nH]c(-c4cccc(OC)c4OC)c(C)c3c2)CC1 | –
16 | 4850 | – | COc1ccc(-c2[nH]c3ccc(C4CCNCC4)cc3c2C)cc1OC | –

Row | IC50 (Toll-like receptor 9) [nM] | IC50 (Toll-like receptor 7) [nM] | SMILES | also measured
17 | 1200 | 650 | CNCCN1CCC(c2ccc3[nH]c(-c4ccc5c(c4)OCO5)c(C)c3c2)CC1 | –
18 | 460 | > 10000 | CNCCN1CCC(c2ccc3[nH]c(-c4cccc(C#N)c4)c(C)c3c2)CC1 | –
19 | 1800 | > 10000 | CNCCN1CCC(c2ccc3[nH]c(-c4ccccc4)c(C)c3c2)CC1 | –
20 | 750 | 70 | CNCCN1CCC(c2ccc3[nH]c(-c4ccc(OC)c(OC)c4)c(CC(F)(F)F)c3c2)CC1 | –
21 | 850 | – | COc1ccc(-c2[nH]c3ccc(C4CCN(Cc5nccn5C)CC4)cc3c2C)cc1OC | –
22 | – | 730 | COc1ccc(-c2[nH]c3ccc(C4CCN(C5CCN(C)CC5)CC4)cc3c2C)cc1OC | –
23 | 21700 | – | CNCCN1CCC(c2ccc3[nH]c(-c4ccccc4Cl)c(F)c3c2)CC1 | –
24 | 550 | 790 | CNCCCN1CCC(c2ccc3[nH]c(-c4ccc(OC)c(OC)c4)c(C)c3c2)CC1 | –
25 | – | > 10000 | CNCCN1CCC(c2ccc3[nH]c(-c4ccc(OC)c(OC)c4)c(C#N)c3c2)CC1 | –
26 | 2330 | > 10000 | CNCCN1CCC(c2ccc3[nH]c(-c4ccc(OC)cc4OC)c(C)c3c2)CC1 | –
27 | 740 | 850 | COc1ccc(-c2[nH]c3ccc(C4CCN(CC5CCCCN5C)CC4)cc3c2C)cc1OC (stereo not given) | –
28 | 430 | – | CNCCN1CCC(c2ccc3[nH]c(-c4ccc(OC)c(OC)c4)c(Cl)c3c2)CC1 | –
29 | 430 | 250 | CNCCN1CCC(c2ccc3[nH]c(-c4ccc(OC)c(OC)c4)c(C)c3c2)CC1 | IC50 (Toll-like receptor 3): 2160 nM; IC50 (Toll-like receptor 4): 15000 nM
30 | 500 | 5460 | CNCCN1CCC(c2ccc3[nH]c(-c4ccc(OC)cc4)c(C)c3c2)CC1 | –
31 | – | 3490 | COc1ccc(-c2[nH]c3ccc(C4CCN(Cc5cnc(C)[nH]5)CC4)cc3c2C)cc1OC | –
32 | > 50000 | 1310 | COc1ccc(-c2[nH]c3ccc(C4CCN(C(C)=O)CC4)cc3c2C)cc1OC | –
